Laboratory results as given in ChEMBL document CHEMBL1151993, “Oxylipins from Dracontium loretense” (J Nat Prod, 2009).
The source made the active and inactive calls. No cut-off for these calls is given here.

What was measured:
PBMC [1] = test: Cytotoxicity in human PBMC cells at 100 uM after 48 hrs; type: cell-based
PBMC [2] = test: Immunostimulatory activity in human PBMC assessed as reduction in cell proliferation at 100 uM after 48 hrs by [3H]thymidine incorporation assay relative to control; type: functional, cell-based
PBMC [3] = test: Immunostimulatory activity in human PBMC assessed as cell activation at 10 uM after 48 hrs by [3H]thymidine incorporation assay relative to control; type: functional, cell-based

CC/C=C\C/C=C\[C@@H](O)[C@H](O)[C@@H](O)CCCCCCCC(=O)O (relative stereo)
Activity (PBMC [1]): Toxic | Activity (PBMC [2]): inactive

CCCCCCCC[C@H](O)[C@H](O)/C=C/C(O)CCCCC(=O)O (relative stereo)
Activity (PBMC [3]): Active | Activity (PBMC [1]): Toxic | Activity (PBMC [2]): inactive

CCCCCCCC[C@@H](O)[C@H](O)/C=C/C(O)CCCCC(=O)O (relative stereo)
Activity (PBMC [1]): Toxic | Activity (PBMC [2]): inactive

CCCCCCCC[C@H](O)[C@@H](O)[C@H](O)/C=C\CCCCC(=O)O (relative stereo)
Activity (PBMC [1]): Toxic | Activity (PBMC [2]): inactive
